# Test results from patent publication US20040092583A1, “Treatment for inhibiting neoplastic lesions” (priority 2001, published 2004).
# What was measured:
# Format in all cases: cell-based
# [1] = system: PC3 Human Prostate Carcinoma; assay: clonogenic assay (two-layered soft agar), PC3; conditions: continuous exposure 5-6 days, read-out: IC50 (inhibition of colony formation by 50%)
# Method: (§1) In vitro cytotoxic activity of extracts containing high concentrations of incensole, furanogermacren and incensole/furanogermacren mixture were determined in several cultured tumour cell lines by performing the […] clonogenic assay. This assay assesses the inhibition of colony formation of tumour stem cells growing in soft agar by cytotoxic agents. Since tumour stem cells are responsible for the proliferate potential and aggressiveness of a tumour cell population, the clonogenic assay is highly predictive of in vivo response.
# (§2) The extracts were dissolved in DMSO/water 1:1, prepared as a 30 mg/ml solution and stored at −20° C. until use. […]
# (§3) Human tumour cell lines were grown in RPMI 1640 supplemented with 10% fetal calf serum and 2 mM L-glutamine. […] For treatment experiments, exponentially growing cells were trypsinized, washed twice with PBS and the percentage of viable cells was determined by hemocytometer count using trypan blue viable dye exclusion.
# (§4) The clonogenic assay was performed according to a modified two-layered soft agar assay. […] Cultures were incubated at 5% CO2 and 37° C. in a humidifled atmosphere for 5-6 days under continuous exposure to drugs and monitored closely for colony growth using an inverted microscope. […]
# (§5) If an ID50 or IC70 value could not be determined within the examined dose range, the lowest or highest concentration studies was used for the calculation. […]
# HT29 colon carcinoma = assay: clonogenic assay (two-layered soft agar), HT29; conditions: Homo sapiens, HT-29, continuous exposure 5-6 days, read-out: IC50 (inhibition of colony formation by 50%)
# Method: as §1, §2, §3, §4, §5
# [2] = system: Staphylococcus aureus NCTC 10442; assay: MIC, macrodilution broth procedure; conditions: NCTC10442
# Method: These studies were performed to determine the minimum inhibitory concentration (MIC) of incensole/furanogermacren mixture. MIC values were determined using a macrodiluton broth procedure based on NCCLS Documents M7-A3 “Methods for dilution anti-microbial susceptibility tests for bacteria that grow aerobically-third edition, approved standard (1993). […] The following organisms were tested: [table]
# [3] = system: Enterococcus feacalis NCTC 775; assay: MIC, macrodilution broth procedure; conditions: NCTC775
# Method: (§6) These studies were performed to determine the minimum inhibitory concentration (MIC) of incensole/furanogermacren mixture.
# (§7) MIC values were determined using a macrodiluton broth procedure based on NCCLS Documents M7-A3 “Methods for dilution anti-microbial susceptibility tests for bacteria that grow aerobically-third edition, approved standard (1993).
# [4] = system: Staphylococcus aureus NCTC 6571; assay: MIC, macrodilution broth procedure; conditions: NCTC6571
# Method: as §6, §7
smiles,measurement,setting,value
"C/C1=C\C[C@]2(C(C)C)CC[C@@](C)(O2)[C@@H](O)CC/C(C)=C/CC1 [Incensole, incensole]",IC50,[1],6 µg/mL
same,IC50,HT29 colon carcinoma,70 µg/mL
same,MIC,[2],38 µg/mL
same,MIC,[3],38 µg/mL
same,MIC,[4],38 µg/mL
